# In patent US20260013504A1, “HERBICIDAL MIXTURE, HERBICIDAL COMPOSITION, METHOD, USE, AND KITS FOR CONTROLLING UNDESIRABLE VEGETATION” (ADAMA AGAN LTD., priority 2022, published 2026):
# Columns and labels:
# Format in all cases: in vivo
# [1] = system: Lolium multiflorum Lamk; assay: Pot experiment, soil treatment, control of Lolium multiflorum Lamk (fresh weight, Colby); details: mixtures: both AIs at these rates, after 35 days
# Method: (§1) Referring to an article of Colby, S. R. i.e., Calculation of the synergistic and antagonistic response of herbicide combinations.
# (§2) E0-E value is calculated to evaluate the combined effect of pyroxasulfone and the second herbicide selected from the group consisting of fluorochloridone, aclonifen, diflufenican and terbutryn on the selected weeds.
# (§3) In this Example, the herbicidal activity of treatments by a mixture of pyroxasulfone and the second herbicide selected from the group consisting of fluorochloridone, aclonifen, diflufenican and terbutryn for controlling Aegilops tauschii was investigated by a pot experiment. This Example was carried out in accordance with “NY/T 1155.4-2006 Guidelines for Indoor Bioassay Tests of Pesticides, Herbicides Part 4: Activity Determination Tests, Stem and Leaf Spray Method”. • Source of the agrochemicals tested were: • Pyroxasulfone: pyroxasulfone (850g/Kg, WG) from Adama Agan LTD. • Fluorochloridone: fluorochloridone (250 g/L, EC) from Adama Agan LTD. • Aclonifen: aclonifen (600 g/L, SC) from Adama Agan LTD. • Diflufenican: diflufenican (50g/Kg, WP) from Bayer. • Terbutryn: terbutryn (50g/Kg, SC) from Zhejiang Zhongshan Chemical Industry Group Co., Ltd. • Cultivation of test materials: The test soil was formed by mixing the 20 cm layer loam on the ground surface and the culture medium in a ratio of 3:1 as cultivation soil. Weeds were cultivated in an artificial climate chamber. The daytime and nighttime temperatures were set at 22° C. and 19° C., respectively, and the illumination was set at daytime: dark time 12h: 12h.
# (§4) A certain amount of Aegilops tauschii seeds were sown in a plastic pot with a diameter of 9 cm, covering with 1-2 mm soil, and putting them in an enamel dish filled with water. The bottom infiltration method was used to water them, the agrochemicals tested in this Example were applied on the second day after sowing Aegilops tauschii seeds.
# (§5) Spraying treatment: ASS-4 automatic control spraying system with a fan-shaped nozzle was used indoors to spray the agrochemicals, the running speed was adjusted based on nozzle pressure, flow rate, etc. to spray 50 mL of liquid of agrochemicals on the actual spray area of 1.1 m2 (equivalent to 30 liters per mu), arranging the plastic pots to be processed on the spraying table evenly, and spraying evenly. The spraying pressure was 0.35 MPa, and the flow rate of the fan-shaped nozzle was 800 mL/min, spraying in order from low dosage to high dosage. Each treatment was repeated 3 times. After spraying, the plastic pots were dried for one day, placed in an artificial climate chamber, and watered regularly to keep moist.
# (§6) Weed investigation method and time: after applying the agrochemicals, the symptoms of weed damage (such as growth inhibition, chlorosis, deformity, etc.) were recorded in detail. After 35 days, the fresh weight of aerial part of the weeds in each treatment was weighed, and the measured fresh weight inhibition rate and the measured fresh weight survival rate for each treatment were calculated according to the following equations: […]
# Example 2 was conducted in substantially the same way as Example 1, except that Lolium multiflorum Lamk was used instead of Aegilops tauschii.
# [2] = system: Bromus japonicus; assay: Pot experiment, soil treatment, control of Bromus japonicus (fresh weight, Colby); details: mixtures: both AIs at these rates, after 35 days
# Method: as §1, §2, §3, §4, §5, §6
# Example 3 was conducted in substantially the same way as Example 1, except that Bromus japonicus was used instead of Aegilops tauschii.
# [3] = system: Aegilops tauschii; assay: Pot experiment, soil treatment, control of Aegilops tauschii (fresh weight, Colby); details: mixtures: both AIs at these rates, after 35 days
# Text: as §1
# E0 is the theoretical fresh weight survival rate for the mixture of pyroxasulfone and the second herbicide selected from the group consisting of fluorochloridone, aclonifen, diflufenican and terbutryn;
# X is the measured fresh weight survival rate for pyroxasulfone used alone at the same dosage as that in the mixture;
# Y is the measured fresh weight survival rate for the second herbicide selected from the group consisting of fluorochloridone, aclonifen, diflufenican and terbutryn used alone at the same dosage as that in the mixture;
# E is the measured fresh weight survival rate for the mixture of pyroxasulfone and the second herbicide selected from the group consisting of fluorochloridone, aclonifen, diflufenican and terbutryn.
# as §2, §3, §4, §5, §6
# [4] = system: Solanum nigrum; assay: Pot experiment (glass greenhouse), soil treatment, control of Solanum nigrum (fresh weight, Colby)
# Method: as §1, §2, §3, §4, §5, §6
# Example 6 was substantially conducted in the same as Example 1, except that (1) Solanum nigrum was used instead of Aegilops tauschii, (2) in “Cultivation of test materials” part, Solanum nigrum was cultivated in a glass greenhouse instead of an artificial climate chamber at a temperature of 25 to 33° C. with a natural illumination, and (3) in “Spraying treatment” part, after spraying and drying, the plastic pots were placed in a glass greenhouse instead of an artificial climate chamber.
# [5] = system: Lithospermum arvense; assay: Pot experiment, soil treatment, control of Lithospermum arvense (fresh weight, Colby)
# Method: as §1, §2, §3, §4, §5, §6
# Example 5 was conducted substantially the same way as Example 1, except that Lithospermum arvense was used instead of Aegilops tauschii.
# [6] = system: Galium aparine; assay: Pot experiment, soil treatment, control of Galium aparine (fresh weight, Colby)
# Method: as §1, §2, §3, §4, §5, §6
# Example 4 was conducted substantially the same way as Example 1, except that Galium aparine was used instead of Aegilops tauschii.
# [7] = g ai/ha: pyroxasulfone 11.25, fluorochloridone 31.25, aclonifen 150, diflufenican 14.0625, terbutryn 140.625
# [8] = g ai/ha: pyroxasulfone 22.5, fluorochloridone 62.5, aclonifen 300, diflufenican 28.125, terbutryn 281.25
# [9] = g ai/ha: pyroxasulfone 45, fluorochloridone 125, aclonifen 600, diflufenican 56.25, terbutryn 562.5
# [10] = g ai/ha: pyroxasulfone 90, fluorochloridone 250, aclonifen 1200, diflufenican 112.5, terbutryn 1125
# [11] = g ai/ha: pyroxasulfone 180, fluorochloridone 500, aclonifen 2400, diflufenican 225, terbutryn 2250
# [12] = g ai/ha: pyroxasulfone 360, fluorochloridone 1000, aclonifen 4800, diflufenican 450, terbutryn 4500
substance,measurement,setting,value
3-chloro-4-(chloromethyl)-1-(3-(trifluoromethyl)phenyl)-2-pyrrolidione [fluorochloridone],Measured fresh weight inhibition rate (%),[1]; [7],93.2%
same,Measured fresh weight survival rate (%) - E,[1]; [7],6.8%
same,Measured fresh weight inhibition rate (%),[1]; [8],96.4%
same,Measured fresh weight survival rate (%) - E,[1]; [8],3.6%
same,Measured fresh weight inhibition rate (%),[1]; [9],98.4%
same,Measured fresh weight survival rate (%) - E,[1]; [9],1.6%
same,Measured fresh weight inhibition rate (%),[1]; [10],100.0%
same,Measured fresh weight survival rate (%) - E,[1]; [10],0.0%
same,Measured fresh weight inhibition rate (%),[1]; [11],100.0%
same,Measured fresh weight survival rate (%) - E,[1]; [11],0.0%
same,Measured fresh weight inhibition rate (%),[1]; [12],100.0%
same,Measured fresh weight survival rate (%) - E,[1]; [12],0.0%
same,Measured fresh weight inhibition rate (%),[2]; [7],94.8%
same,Measured fresh weight survival rate (%) - E,[2]; [7],5.2%
same,Measured fresh weight inhibition rate (%),[2]; [8],96.9%
same,Measured fresh weight survival rate (%) - E,[2]; [8],3.1%
same,Measured fresh weight inhibition rate (%),[2]; [9],100.0%
same,Measured fresh weight survival rate (%) - E,[2]; [9],0.0%
same,Measured fresh weight inhibition rate (%),[2]; [10],100.0%
same,Measured fresh weight survival rate (%) - E,[2]; [10],0.0%
same,Measured fresh weight inhibition rate (%),[2]; [11],100.0%
same,Measured fresh weight survival rate (%) - E,[2]; [11],0.0%
same,Measured fresh weight inhibition rate (%),[3]; [7],0.0%
same,Measured fresh weight survival rate (%) - E,[3]; [7],100.0%
same,Measured fresh weight inhibition rate (%),[3]; [8],7.9%
same,Measured fresh weight survival rate (%) - E,[3]; [8],92.1%
same,Measured fresh weight inhibition rate (%),[3]; [9],11.0%
same,Measured fresh weight survival rate (%) - E,[3]; [9],89.0%
same,Measured fresh weight inhibition rate (%),[3]; [10],49.4%
same,Measured fresh weight survival rate (%) - E,[3]; [10],50.6%
same,Measured fresh weight inhibition rate (%),[3]; [11],79.3%
same,Measured fresh weight survival rate (%) - E,[3]; [11],20.7%
same,Measured fresh weight inhibition rate (%),[3]; [12],93.9%
same,Measured fresh weight survival rate (%) - E,[3]; [12],6.1%
same,Measured fresh weight inhibition rate (%),[4]; 31.25 g ai/ha,18.8%
same,Measured fresh weight survival rate (%) - E,[4]; 31.25 g ai/ha,81.2%
same,Measured fresh weight inhibition rate (%),[4]; 62.5 g ai/ha,32.5%
same,Measured fresh weight survival rate (%) - E,[4]; 62.5 g ai/ha,67.5%
same,Measured fresh weight inhibition rate (%),[4]; 125 g ai/ha,67.1%
same,Measured fresh weight survival rate (%) - E,[4]; 125 g ai/ha,32.9%
same,Measured fresh weight inhibition rate (%),[4]; 250 g ai/ha,99.6%
same,Measured fresh weight survival rate (%) - E,[4]; 250 g ai/ha,0.4%
same,Measured fresh weight inhibition rate (%),[4]; 500 g ai/ha,100.0%
same,Measured fresh weight survival rate (%) - E,[4]; 500 g ai/ha,0.0%
same,Measured fresh weight inhibition rate (%),[5]; 31.25 g ai/ha,47.8%
same,Measured fresh weight survival rate (%) - E,[5]; 31.25 g ai/ha,52.2%
same,Measured fresh weight inhibition rate (%),[5]; 62.5 g ai/ha,97.1%
same,Measured fresh weight survival rate (%) - E,[5]; 62.5 g ai/ha,2.9%
same,Measured fresh weight inhibition rate (%),[5]; 125 g ai/ha,98.6%
same,Measured fresh weight survival rate (%) - E,[5]; 125 g ai/ha,1.4%
same,Measured fresh weight inhibition rate (%),[5]; 250 g ai/ha,100.0%
same,Measured fresh weight survival rate (%) - E,[5]; 250 g ai/ha,0.0%
same,Measured fresh weight inhibition rate (%),[5]; 500 g ai/ha,100.0%
same,Measured fresh weight survival rate (%) - E,[5]; 500 g ai/ha,0.0%
same,Measured fresh weight inhibition rate (%),[6]; 31.25 g ai/ha,63.0%
same,Measured fresh weight survival rate (%) - E,[6]; 31.25 g ai/ha,37.0%
same,Measured fresh weight inhibition rate (%),[6]; 62.5 g ai/ha,84.9%
same,Measured fresh weight survival rate (%) - E,[6]; 62.5 g ai/ha,15.1%
same,Measured fresh weight inhibition rate (%),[6]; 125 g ai/ha,93.2%
same,Measured fresh weight survival rate (%) - E,[6]; 125 g ai/ha,6.8%
same,Measured fresh weight inhibition rate (%),[6]; 250 g ai/ha,95.9%
same,Measured fresh weight survival rate (%) - E,[6]; 250 g ai/ha,4.1%
same,Measured fresh weight inhibition rate (%),[6]; 500 g ai/ha,100.0%
same,Measured fresh weight survival rate (%) - E,[6]; 500 g ai/ha,0.0%
